From patent publication US5773228A, “Activation-dependent protein expressed on the surface of activated platelets and antibodies thereto” (The General Hospital Corporation, priority 1995, dated 1998)

Tested on: platelets (TAPP-2 expression)
Assay: Expression of TAPP-2 on platelets stimulated by different agonists (binding of 125I-MAb 12A7)
Type: cell-based, rabbit
Conditions: compared to resting platelets, 10 minutes at room temperature
Procedure: Platelets were incubated with various agonists, with or without Ca^2+ or EDTA and then fixed by paraformaldehyde. The fixed platelets were washed and incubated with ^125 I-MAb 12A7 (50,000 cpm), with or without unlabeled MAb 12A7 (0.5 ug) added as an inhibitor to estimate nonspecific binding. After 45 min. the platelet samples were again washed, spun, and aspirated. The platelet pellet was counted to determine the amount of bound MAb 12A7.
Equilibrium saturation binding studies were conducted in a similar manner. Platelets activated by thrombin (0.15 U/ml) were incubated in duplicate with various amounts of ^125 I-MAb 12A7 (1,000,000 to 6,250 cpm) in a total volume of 200 μl. Each tube also contained a molar excess (>100-fold) of a control, anti-digoxin MAb, of the same isotype (Mudgett-Hunter et al., Mol. Immunol. 22:477-488 (1985)), which was added to inhibit nonspecific binding of ^125 I-MAb 12A7 to platelets via Fc receptors. To estimate nonspecific binding, a molar excess (>100-fold) of nonradioactive MAb 12A7 was added to one set of tubes. After incubation for 45 minutes at room temperature 2 ml of cold Tyrode's buffer was added, the tubes were centrifuged at 3000 ×g for 10 minutes and the unbound ^125 I-12A7 MAb was removed. The bound antibody was measured by gamma counting in Micro-Medics 4/600 counter. To study the binding of MAb 12A7 to resting platelets a similar procedure was performed except that the number of platelets had to be increased to 1.29×10^8 cells in a total incubation volume of 400 μl. The platelets were incubated with various amounts of MAb 12A7 (2,000,000 to 25,000 cpm) as above. The binding data was analyzed by the Ligand program of Munson and Rodbard, Anal. Biochem. 107:220-239 (1980)). […] The binding of 12A7 to platelets stimulated by different agonists was also studied. Platelets were isolated as described above. Platelets (5×10^6 cells/40 Kl) in modified Tyrode's (without divalent cations) were added to plastic tubes. […] After 45 minutes the platelet samples were again washed, spun, aspirated and gamma-counted.

SMILES: CNc1ccc2oc(C[C@H]3O[C@@]4(CC[C@H]3C)O[C@H]([C@H](C)C(=O)c3ccc[nH]3)[C@H](C)C[C@H]4C)nc2c1C(=O)O [A23187]
- TAPP-2 expression as indicated by the binding of 125I-MAb 12A7 (A23187 2 μM): notable increase

SMILES: Nc1ncnc2c1ncn2[C@@H]1O[C@H](COP(=O)(O)OP(=O)(O)O)[C@@H](O)[C@H]1O [ADP]
- TAPP-2 expression as indicated by the binding of 125I-MAb 12A7 (ADP 10 μM): notable increase

SMILES: CNC[C@H](O)c1ccc(O)c(O)c1 [epinephrine]
- TAPP-2 expression as indicated by the binding of 125I-MAb 12A7 (epinephrine 2 μM): little, if any, effect
